# Publication PMC10891983, “First Description of Marinoquinoline Derivatives’ Activity against Toxoplasma gondii” (Pharmaceutics, 2024)
# Entries after “also recorded” stand apart in the source; their conditions may differ.
# Columns and labels:
# [1] = Assay for evaluating mammalian cytotoxicity (MTT); assay type: cell-based; conditions: human, human foreskin fibroblast (HFF) cells, ± SD of three independent experiments, read-out: CC50 (Half Cytotoxic Concentration)
# [2] = test system: RH strain T. gondii tachyzoites; assay type: in vivo
# Description: To evaluate the effectiveness of MQ-1 in treating acute T. gondii infection in vivo, a murine model was employed, utilizing Swiss mice in accordance with established protocols. […] Treatment involved the administration of compounds dissolved in a 4% DMSO solution in water, and was conducted one day post-infection. […] . As for the control group, they were administered 100 µL of the vehicle utilized for MQ-1 dilution, consisting of a 4% DMSO solution in water. Continuous monitoring of the mice included daily assessments for signs of toxoplasmosis. These signs encompassed impaired mobility, feeding difficulties, weight loss, self-mutilation, and severe ascites. […] The implementation of humane endpoints aimed to mitigate any potential pain or suffering in the animals, leading to their euthanasia when necessary. At the end of the experimental period, euthanasia was performed on all remaining mice, and the peritoneal parasite load was estimated using a Neubauer chamber.
# T. gondii tachyzoites = experiment: microbe, parasite or virus in culture; assay type: cell-based, Toxoplasma gondii; conditions: for EC50: Toxoplasma gondii, T. gondii RH-2F1 tachyzoites in HFF, 72 h, ± SD of three independent experiments, read-out: EC50 (Half Effective Concentration); for SI (Selectivity index): CC50 (HFF)/EC50 (T. gondii)
# ME49 strain T. gondii = experiment: Chronic toxoplasmosis model, ME49-infected C57BL/6 mice
# Description: Male Swiss mice (Mus musculus) (8 weeks old) for the acute toxoplasmosis experiments and female C57BL/6 mice (4 weeks old) for the chronic toxoplasmosis experiments were sourced from the animal breeding facility at the Universidade Federal de Alfenas, Brazil. Strict adherence to the principles of good animal practice, as outlined in the Brazilian Guidelines for Care and Utilization of Animals by the Conselho Nacional de Controle e Experimentação Animal (CONCEA), was observed during the handling of all animals. The study protocol received approval from the Ethics Committee for Animal Experimentation at the Universidade Federal de Alfenas under Protocols 033/2021 and 0006/2023. All necessary precautions were taken to minimize any potential suffering experienced by the animals.
# The mice were infected with 10 cysts of the ME49 strain of T. gondii via intraperitoneal inoculation, following the protocol by [16]. After a 40-day infection period, random assignment was used to divide the mice into distinct experimental groups, each consisting of four mice. These experimental groups were subjected to different treatments: MQ-1, administered either at a dosage of 25 mg/kg/day or 12.5 mg/kg/day, prepared with a 4% DMSO solution in water. […] The administration was carried out via oral gavage, with a final volume of 100 µL per dose. For the control group, 100 µL of the vehicle used to dilute MQ-1 (4% DMSO in water) was administered. […] On the 51st day post-infection, euthanasia was performed for all animals, followed by brain tissue collection for RNA extraction and quantification, as detailed in [18]. DNA extraction and purification were carried out using the PureLink Genomic DNA Minikit (Invitrogen. Carlsbad, CA, USA) following the manufacturer’s instructions. […] After extraction, RNA samples were immediately processed for cDNA synthesis and underwent quantitative real-time (qPCR) analysis. […]
# Data on parasite burden in acute and chronic infection in treated and untreated groups were analyzed for statistical significance using One-Way ANOVA, followed by the Tukey post-test. […]
# [3] = vs pyrimethamine 12.5 mg/kg/day
Structure (SMILES),CC50 at 72 h [1] [µM],"signs of toxicity throughout the treatment ([2]; Swiss mice, 12.5 mg/kg/day oral for 8 days)","difference between the tested compound and the standard drug, acute evaluation [2, 3]",EC50 (T. gondii tachyzoites) [µM],"cerebral parasitic load vs vehicle (ME49 strain T. gondii; C57BL/6 mice, ME49 strain, 25 mg/kg/day oral for 10 consecutive days from day 41 post-infection, qPCR, p < 0.01, 25 mg/kg/day)","difference between the tested compound and the standard drug, chronic evaluation (ME49 strain T. gondii; [3])",SI (Selectivity index) (T. gondii tachyzoites)
COc1ccc2c(c1)nc(-c1c[nH]c3ccccc13)c1[nH]ccc12 [MQ-1],30.5 ± 1.8,No signs of toxicity were observed,no statistically significant differences,1.46 ± 0.45,significantly reduced; also recorded: significant (p < 0.01) reduction,no statistically significant differences,
COc1ccc2c(c1)nc(-c1ccc(N3CCNCC3)cc1)c1[nH]ccc12 [MQ-2],29.1 ± 0.84,,,1.67 ± 0.4,,,17.39
CC(C)(C)OC(=O)Nc1ccc(-c2nc3ccc(Cl)cc3c3cc[nH]c23)cc1 [MQ-3],5.36 ± 0.91,,,1.6 ± 0.54,,,3.35
CC(C)(C)OC(=O)Nc1ccc(-c2nc3ccc(OC(F)(F)F)cc3c3cc[nH]c23)cc1 [MQ-4],4.16 ± 1.05,,,1.31 ± 0.31,,,3.18
COc1ccc2c(c1)nc(-c1ccc(N3CCC(F)CC3)cc1)c1[nH]ccc12 [MQ-5],5.05 ± 1.63,,,1.43 ± 0.37,,,3.52
COc1ccc2c(c1)nc(-c1ccc(Br)cn1)c1[nH]ccc12 [MQ-6],28.6 ± 7.33,,,3.78 ± 0.67,,,7.55
"CCc1nc(N)nc(N)c1-c1ccc(Cl)cc1 [PYR, pyrimethamine, reference compound]",68.1 ± 4.26,,,0.29 ± 0.19,,,
